# Source: patent US20100130618A1, “TREATMENT OF HUMAN DISEASE CONDITIONS AND DISORDERS USING VITAMIN K ANALOGUES AND DERIVATIVES” (priority 2007, published 2010)
# Like-named read-outs stand apart in the source and are kept apart here.
# Assays:
# [1] = test system: Guinea Pig ileum; test: Guinea pig ileum, acetylcholine induced smooth muscle contraction; details: for inhibition of acetylcholine induced smooth muscle contraction: acetylcholine 50 μg/ml; for smooth muscle relaxant activity (inference): overall inference from guinea pig ileum data
# Protocol: (§1) Muscle relaxant activity was evaluated of pure test samples PK and MK-4 with Frog Rectus Abdominus Muscle and Guinea Pig ileum.
# (§2) To evaluate the effect of test samples on smooth muscle contraction induced by (a) Acetylcholine (Neurotransmitter) which acts on […] receptors, (b) Histamine that causes a transient rise of cytosolic calcium, which is mediated by H1 receptor coupling that triggers release of internal calcium stores and (c) Barium that enters the cell through a voltage dependent calcium channel and, either directly or indirectly, interacts with calmodulin.
# (§3) Test Samples were PK-400 μg/ml and MK-4-400 μg/ml
# [2] = test system: Guinea Pig ileum; test: Guinea pig ileum, barium chloride induced smooth muscle contraction; details: dose 640 μg (1.6 ml); barium chloride 1%
# Protocol: as §1, §2, §3
# [3] = test system: Guinea Pig ileum; test: Guinea pig ileum, histamine induced smooth muscle contraction; details: dose 640 μg (1.6 ml); histamine 25 μg/ml
# Protocol: as §1, §2, §3
# [4] = test system: Frog Rectus Abdominus Muscle; test: Frog rectus abdominus muscle preparation, acetylcholine induced skeletal muscle contraction; details: for antagonism of contraction induced by acetylcholine (40 μg): dose of 400 μg; for activity on skeletal muscle contraction (inference): overall inference
# Protocol: as §1
# B) Frog Rectus Abdominus Muscle Preparation
# To evaluate the effect of test samples on skeletal muscle contraction induced by Acetylcholine (Neurotransmitter).
# Acetylcholine: 100 mcg/ml
# as §3
# [5] = test system: Frog Heart; test: Frog heart, adrenaline-induced contractions; details: for inhibition of adrenaline-induced contractions: 0.1 ml (40 μg), 0.2 ml (80 μg) and 0.4 ml (160 μg), adrenaline 40 μg/ml; for beta blocker activity (inference): overall inference from adrenalic response
# Protocol: Frog Heart Adrenaline: 40 μg/ml
# [6] = Clinical case studies of oral MK-7 (Examples 1-10); type: in vivo, humans
# Description: Examples 1-10 enumerate clinical case studies data and Examples 11 and 12 provide in vitro experiments.
# [7] = cited from earlier work
# [8] = cited from earlier work; remark: listed apart in the source
# [9] = cited from earlier work; remark: listed apart in the source
# [10] = 50 gms natto per day with 865, 1295 or 1730 μg MK-7 per 100 g; cited from earlier work
# [11] = Example 02: MK-7 p.o. every day
# [12] = Example 05: person, 100 μg per day
molecule,measurement,setting,value
"CC(C)=CCC/C(C)=C/CC/C(C)=C/CC/C(C)=C/CC1=C(C)C(=O)c2ccccc2C1=O [MK-4, menatetrenone]",inhibition of acetylcholine induced smooth muscle contraction,[1]; dose 80 μg (0.2 ml),21.62%
same,inhibition of acetylcholine induced smooth muscle contraction,[1]; dose 160 μg (0.4 ml),40%
same,inhibition of acetylcholine induced smooth muscle contraction,[1]; dose 320 μg (0.8 ml),81.81%
same,smooth muscle relaxant activity (inference),[1],demonstrate a smooth muscle relaxant activity
same,inhibition of barium chloride induces smooth muscle contraction,[2],29%
same,inhibition of histamine induced smooth muscle contraction,[3],29.4%
same,antagonism of contraction induced by acetylcholine (40 μg),[4],not antagonized
same,activity on skeletal muscle contraction (inference),[4],failed to exhibit activity
same,inhibition of adrenaline-induced contractions,[5],failed to inhibit
same,beta blocker activity (inference),[5],do not exhibit beta blocker activity
CC(C)=CCC/C(C)=C/CC/C(C)=C/CC/C(C)=C/CC/C(C)=C/CC/C(C)=C/CC/C(C)=C/CC1=C(C)C(=O)c2ccccc2C1=O [MK-7],"tingling, numbness and burning of feet","[6]; Example 01: person, type 2 diabetes, MK-7 100 μg per day for 2 months",complete relief
same,skin hyper pigmentation of nape of neck,"[6]; Example 01: person, type 2 diabetes, MK-7 for one and a half years",almost subsided
same,energy levels and fatigue,[6]; Example 02: MK-7 added to schedule,higher energy levels and less fatigue
same,paper-money skin appearance,[6]; [11],much reduced
same,tingling and numbness,[6]; [11],reduced markedly
same,frequency of mild cramps,"[6]; Example 02: MK-7 p.o. every day, over the next four months (before: 2 to 3 times in a week)",one or two in a month
same,severity and frequency of muscle cramps,"[6]; Example 02: person, type 2 diabetes, hypertension, MK-7 p.o. every day, over the next two weeks",steadily decreased
same,cramps during night and day,"[6]; Example 03: person, 100 μg one tablet per day, after six months",disappeared
same,rough skin on both heels,"[6]; Example 04: person, daily dose 200 μg, within 10-15 days",completely lost roughness and became smooth
same,scalp hair-loss,[6]; [12],stopped distinctly
same,skin of feet,[6]; [12],"smoothness of skin of their feet, diminution of cracks in the feet"
same,hyper pigmentation and paper-money skin of lower limbs,"[6]; Example 05: person, p.o. 100 μg per day",gradually reduced to a bare minimum
same,"frequency, duration and severity of leg cramps","[6]; Example 06: person, 100 μg two times a day",decreased
same,skin lightening,"[6]; Example 07: 100 μg twice a day, another 3 months (6 months total)",considerable lightening of the skin
same,"hyper pigmentation of face, arms and neck","[6]; Example 07: person, 100 μg twice a day, after 2 to 3 months",decreased
same,nail growth,"[6]; Example 08: 200 μg per day, over 2 months",grows faster
same,severity of cramps after marathon,"[6]; Example 08: athlete, 200 μg per day, within 2 months",lowered
same,"residual neuropathy symptoms (tingling, numbness, paresthesiae, burning sensation)","[6]; Example 09: diabetic, 100 μg per day, within 15 days",disappears completely
same,frequency of restless legs syndrome,[6]; Example 10: 200 μg per day for 1 year (before: every night),once or twice a month
same,restless legs syndrome,"[6]; Example 10: person, 200 μg per day, within 2 weeks",reduced considerably
same,concentration relative to the peak value concentration (Cmax) achieved by PK,[7]; at 72 hrs,> 50%
same,detectability in circulation,[7]; at 72 hrs,remains detectable
same,half life,[7]; in vivo,50 h
same,reduction (mid tertile),[8]; dietary intake 24 μg per day mid tertile vs 12 μg per day lower tertile,25%
same,reduction in CHD mortality and aortic calcification,"[8]; dietary intake 45 μg per day upper tertile vs 12 μg per day lower tertile, 10 years follow-up",50%
same,reduction in all cause mortality,[8]; dietary intake 45 μg per day upper tertile vs 12 μg per day lower tertile,25%
same,serum MK-7 concentration (mean±SD),[9]; British women,0.37 ± 0.20 ng/mL
same,serum MK-7 concentration (mean±SD),[9]; Japanese women in Hiroshima,1.22 ± 1.85 ng/mL
same,serum MK-7 concentration (mean±SD),[9]; Japanese women in Tokyo,5.26 ± 6.13 ng/mL
same,serum MK-7 concentration and γ-carboxylated osteocalcin concentration,[10],elevated parallel to the administered level
"CC1=C(C/C=C(\C)CCC[C@H](C)CCC[C@H](C)CCCC(C)C)C(=O)c2ccccc2C1=O [PK, phylloquinone]",inhibition of acetylcholine induced smooth muscle contraction,[1]; dose 320 μg (0.8 ml),38.46%
same,inhibition of acetylcholine induced smooth muscle contraction,[1]; dose 640 μg (1.6 ml),46.15%
same,smooth muscle relaxant activity (inference),[1],demonstrate a smooth muscle relaxant activity
same,inhibition of barium chloride induces smooth muscle contraction,[2],31%
same,inhibition of histamine induced smooth muscle contraction,[3],37.16%
same,antagonism of contraction induced by acetylcholine (40 μg),[4],not antagonized
same,activity on skeletal muscle contraction (inference),[4],failed to exhibit activity
same,inhibition of adrenaline-induced contractions,[5],failed to inhibit
same,beta blocker activity (inference),[5],do not exhibit beta blocker activity
same,elimination half life,[7]; in vivo,1.5 h
same,absorption from vegetables,[7]; taken together with 30 g fat,10-15%
same,absorption from vegetables,[7]; without concomitant fat intake,5-10%
CC(C)NCC(O)COc1cccc2ccccc12 (stereo not drawn) [Propanolol],inhibition of adrenaline response,"[5]; reference competitive inhibitor of adrenaline, FIG. 6",found to inhibit adrenaline response
vitamin B12,tingling and numbness,"[6]; Example 02: vitamin B12 deficiency on Metformin, injections 500 μg over 2 weeks, MK-7 continued",significant relief
